Structures are written as SMILES. Active and inactive are the calls of the source.

The results in this text go back to ChEMBL document CHEMBL1201862, “PubChem BioAssay data set” (2004).

Assay [1] addresses Ras and Rab interactor 1/Tyrosine-protein kinase ABL1 (Homo sapiens, UniProt P00519+Q13671). Type of assay: functional.
Assay [2] in a line: AlphaScreen signal interference compounds, dose response, artefact control for ARNT-TACC3 interaction inhibitor project, biochemical, luminescence, cherry-pick (AID 651705).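 Note: AlphaScreen bead proximity signal that flags compounds interfering with the detection technology; potency reflects signal decrease which marks the compound as an assay artifact.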 It counts as functional.
A further assay concerns the target Nonstructural protein 1 (Influenza A virus, UniProt Q194T2). It counts as functional, Influenza A virus (A/California/07/2009(H1N1)).
Assay [3] can be described thus: miR-122 activators in hepatoma reporter cells, dose response, cell-based, Huh7 psiCHECK-miR122, Renilla luciferase, cherry-picked (AID 651956).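 Note: huh7 hepatoma cells stably carrying a psiCHECK-2 miR-122 sensor plasmid; renilla luciferase signal reporting endogenous miR-122 activity after 48 h compound exposure.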 It counts as functional.
In assay [4] the target is T1, Heat shock factor protein 1 (Mus musculus, UniProt P38532).
T1 sequence (P38532 whole entry): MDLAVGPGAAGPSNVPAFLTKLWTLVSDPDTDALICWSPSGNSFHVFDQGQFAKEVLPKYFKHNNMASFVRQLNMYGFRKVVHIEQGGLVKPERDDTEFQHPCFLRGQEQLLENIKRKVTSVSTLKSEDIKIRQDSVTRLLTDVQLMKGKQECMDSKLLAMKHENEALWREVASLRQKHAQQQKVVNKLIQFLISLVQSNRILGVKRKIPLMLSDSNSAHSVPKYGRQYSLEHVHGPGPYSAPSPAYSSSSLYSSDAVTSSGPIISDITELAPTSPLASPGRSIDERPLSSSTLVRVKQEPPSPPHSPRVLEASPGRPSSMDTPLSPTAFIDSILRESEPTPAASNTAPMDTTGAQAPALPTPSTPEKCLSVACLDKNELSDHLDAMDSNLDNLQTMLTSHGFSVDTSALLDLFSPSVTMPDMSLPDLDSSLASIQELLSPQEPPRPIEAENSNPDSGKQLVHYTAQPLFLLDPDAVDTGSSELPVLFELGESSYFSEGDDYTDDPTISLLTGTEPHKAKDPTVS
The experiment in a line: HSF1 potentiators in luciferase reporter cells, confirmation, cell-based, NIH3T3, luminescence, dose retest (AID 435004).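 Note: stress induced by proteasome inhibitor MG132 added 30 min after compound; luciferase reporter driven by HSF1 response element in NIH3T3 cells; actives raise luminescence as potentiators of the MG132 stress response.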 Type of assay: functional. (In a reporter assay the amount or activity of a reporter protein is the signal.)

The target of another assay is T2, Caspase-3 (Homo sapiens, UniProt P42574).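 Note: Dose-response selectivity test against caspase-3 for candidate inhibitors of sentrin-specific proteases (SENPs).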
T2 sequence (P42574 whole entry): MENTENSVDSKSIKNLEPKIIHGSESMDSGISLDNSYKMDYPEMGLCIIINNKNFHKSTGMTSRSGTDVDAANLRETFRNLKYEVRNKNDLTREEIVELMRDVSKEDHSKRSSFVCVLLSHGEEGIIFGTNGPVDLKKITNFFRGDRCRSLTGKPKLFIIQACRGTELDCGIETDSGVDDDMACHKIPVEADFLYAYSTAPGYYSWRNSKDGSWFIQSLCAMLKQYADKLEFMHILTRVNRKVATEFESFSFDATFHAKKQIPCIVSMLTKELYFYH
Type of assay: functional.

In assay [5] the target is T3, Sentrin-specific protease 6 (Homo sapiens, UniProt Q9GZR1).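 Note: Luminescence-based dose-response confirmatory assay of SENP6 inhibition, following up an ultra-high-throughput screen.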
T3 sequence (Q9GZR1 whole entry): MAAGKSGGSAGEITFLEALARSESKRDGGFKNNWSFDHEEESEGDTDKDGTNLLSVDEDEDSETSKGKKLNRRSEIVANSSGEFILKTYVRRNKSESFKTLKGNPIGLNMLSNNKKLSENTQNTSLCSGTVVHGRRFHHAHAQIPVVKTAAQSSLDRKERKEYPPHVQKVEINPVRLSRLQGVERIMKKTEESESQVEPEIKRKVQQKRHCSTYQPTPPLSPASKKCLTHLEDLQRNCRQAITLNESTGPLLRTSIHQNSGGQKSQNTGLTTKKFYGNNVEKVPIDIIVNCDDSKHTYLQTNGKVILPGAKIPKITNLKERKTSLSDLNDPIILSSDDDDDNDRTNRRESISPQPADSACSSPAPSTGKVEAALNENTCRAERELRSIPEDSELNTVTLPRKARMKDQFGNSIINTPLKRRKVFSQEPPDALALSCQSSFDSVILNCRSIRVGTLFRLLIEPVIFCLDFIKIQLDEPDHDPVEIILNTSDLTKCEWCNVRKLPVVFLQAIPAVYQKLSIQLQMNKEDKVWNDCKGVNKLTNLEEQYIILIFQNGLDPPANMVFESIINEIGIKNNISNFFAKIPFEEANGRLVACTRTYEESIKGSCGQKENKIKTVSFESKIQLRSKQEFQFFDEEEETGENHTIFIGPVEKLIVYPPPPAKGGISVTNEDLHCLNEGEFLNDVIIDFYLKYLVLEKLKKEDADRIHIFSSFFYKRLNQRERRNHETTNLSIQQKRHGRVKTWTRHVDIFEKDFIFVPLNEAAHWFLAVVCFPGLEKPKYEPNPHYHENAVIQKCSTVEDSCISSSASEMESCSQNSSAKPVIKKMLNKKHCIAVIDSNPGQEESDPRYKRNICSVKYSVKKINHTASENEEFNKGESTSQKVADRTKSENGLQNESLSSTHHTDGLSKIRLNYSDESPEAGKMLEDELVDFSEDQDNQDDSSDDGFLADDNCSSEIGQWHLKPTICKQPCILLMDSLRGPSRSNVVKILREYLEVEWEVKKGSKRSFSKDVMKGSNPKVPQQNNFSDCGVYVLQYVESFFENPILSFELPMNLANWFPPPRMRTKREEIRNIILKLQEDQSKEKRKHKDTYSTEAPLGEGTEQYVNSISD
It counts as functional.

Assay [6] concerns the target T4, Sentrin-specific protease 7 (Homo sapiens, UniProt Q9BQF6).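 Note: Luminescence-based dose-response confirmation of ultra-high-throughput screening hits, measuring inhibition of SENP7.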
T4 sequence (Q9BQF6 whole entry): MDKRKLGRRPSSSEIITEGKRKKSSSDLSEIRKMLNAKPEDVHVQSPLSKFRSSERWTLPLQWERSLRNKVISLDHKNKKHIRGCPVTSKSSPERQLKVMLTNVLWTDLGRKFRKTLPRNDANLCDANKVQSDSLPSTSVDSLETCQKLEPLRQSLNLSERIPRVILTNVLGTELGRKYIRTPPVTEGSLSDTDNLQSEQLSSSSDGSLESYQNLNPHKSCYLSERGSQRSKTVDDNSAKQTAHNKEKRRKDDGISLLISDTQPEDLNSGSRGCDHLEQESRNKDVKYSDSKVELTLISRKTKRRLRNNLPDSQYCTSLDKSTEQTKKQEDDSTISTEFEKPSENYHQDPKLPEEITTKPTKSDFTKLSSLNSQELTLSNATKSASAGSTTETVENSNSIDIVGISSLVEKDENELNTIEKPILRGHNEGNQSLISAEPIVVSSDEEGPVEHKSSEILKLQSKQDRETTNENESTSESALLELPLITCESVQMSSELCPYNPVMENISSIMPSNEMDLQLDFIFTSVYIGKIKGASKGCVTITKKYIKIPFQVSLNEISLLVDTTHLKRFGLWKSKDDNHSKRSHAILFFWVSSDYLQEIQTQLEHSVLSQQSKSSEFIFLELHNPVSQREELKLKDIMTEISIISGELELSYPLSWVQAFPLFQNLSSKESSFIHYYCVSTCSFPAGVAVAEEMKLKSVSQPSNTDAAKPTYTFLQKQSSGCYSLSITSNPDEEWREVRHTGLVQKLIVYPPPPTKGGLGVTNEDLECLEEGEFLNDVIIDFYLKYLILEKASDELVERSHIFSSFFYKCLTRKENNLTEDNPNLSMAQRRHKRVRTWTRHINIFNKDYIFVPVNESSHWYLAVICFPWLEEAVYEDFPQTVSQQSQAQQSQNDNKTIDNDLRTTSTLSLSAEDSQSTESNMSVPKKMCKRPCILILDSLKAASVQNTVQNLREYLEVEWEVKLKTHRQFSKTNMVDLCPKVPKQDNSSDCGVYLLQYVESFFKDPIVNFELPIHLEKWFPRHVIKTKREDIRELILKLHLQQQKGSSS
It counts as functional.

Assay [7] has as its target T5, Sentrin-specific protease 8 (Homo sapiens, UniProt Q96LD8).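 Note: luminescence read-out of SENP8 inhibition, dose-response confirmation following an ultra-high-throughput screen.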
T5 sequence (Q96LD8 whole entry): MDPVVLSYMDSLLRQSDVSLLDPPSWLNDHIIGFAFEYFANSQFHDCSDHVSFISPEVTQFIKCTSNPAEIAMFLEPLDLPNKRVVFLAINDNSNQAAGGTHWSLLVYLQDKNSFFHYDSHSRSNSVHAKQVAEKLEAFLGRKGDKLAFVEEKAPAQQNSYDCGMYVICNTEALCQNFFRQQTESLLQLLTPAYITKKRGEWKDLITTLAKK
Type of assay: functional.

For assay [8], the target named is T6, Rac GTPase-activating protein 1 (Homo sapiens, UniProt Q9H0H5).
T6 sequence (Q9H0H5 whole entry): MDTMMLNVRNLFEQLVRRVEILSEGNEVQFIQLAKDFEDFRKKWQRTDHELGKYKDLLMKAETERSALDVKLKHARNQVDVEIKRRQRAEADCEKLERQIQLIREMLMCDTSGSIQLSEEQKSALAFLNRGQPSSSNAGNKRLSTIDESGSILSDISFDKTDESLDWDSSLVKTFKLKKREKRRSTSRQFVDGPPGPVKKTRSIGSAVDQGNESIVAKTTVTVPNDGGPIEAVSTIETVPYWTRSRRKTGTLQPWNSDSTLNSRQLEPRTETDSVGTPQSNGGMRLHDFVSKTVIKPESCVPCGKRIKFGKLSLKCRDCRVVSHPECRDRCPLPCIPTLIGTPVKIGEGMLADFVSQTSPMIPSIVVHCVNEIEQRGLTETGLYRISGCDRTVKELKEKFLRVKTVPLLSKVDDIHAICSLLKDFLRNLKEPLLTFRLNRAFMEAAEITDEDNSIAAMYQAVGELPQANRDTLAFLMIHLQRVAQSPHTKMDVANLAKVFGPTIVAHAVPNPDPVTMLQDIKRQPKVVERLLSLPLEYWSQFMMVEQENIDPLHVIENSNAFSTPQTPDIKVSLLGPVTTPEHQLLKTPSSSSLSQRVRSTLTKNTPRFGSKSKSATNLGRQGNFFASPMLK
The experiment in a line: MgcRacGAP GTPase-activating activity inhibitors, confirmation, biochemical, ADP Hunter fluorescence, primary and confirmatory (AID 624330). Type of assay: functional.

A further assay has as its target T7, Cysteine protease ATG4B (Homo sapiens, UniProt Q9Y4P1).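 Note: Fluorescence-based dose-response confirmation assay measuring inhibition of ATG4B activity.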
T7 sequence (Q9Y4P1 whole entry): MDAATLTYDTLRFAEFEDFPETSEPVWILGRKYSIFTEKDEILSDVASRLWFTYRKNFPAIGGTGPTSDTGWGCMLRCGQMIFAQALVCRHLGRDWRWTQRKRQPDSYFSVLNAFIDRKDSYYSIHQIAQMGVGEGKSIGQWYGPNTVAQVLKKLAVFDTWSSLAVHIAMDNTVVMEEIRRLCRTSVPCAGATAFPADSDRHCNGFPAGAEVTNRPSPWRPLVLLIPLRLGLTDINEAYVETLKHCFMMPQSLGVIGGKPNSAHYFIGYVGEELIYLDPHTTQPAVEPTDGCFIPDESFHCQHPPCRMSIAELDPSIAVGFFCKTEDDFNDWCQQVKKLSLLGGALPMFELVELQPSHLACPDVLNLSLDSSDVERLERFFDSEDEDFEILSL
Type of assay: functional.

The next assay concerns the target Phospholipase A2 (Homo sapiens, UniProt P04054). It counts as functional.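 Note: confirmatory dose-response counterscreen on phospholipase A2, testing hits that came from an ultra-high-throughput screen for ATG4B inhibitors.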

Chain of Ras and Rab interactor 1/Tyrosine-protein kinase ABL1 (P00519 whole entry): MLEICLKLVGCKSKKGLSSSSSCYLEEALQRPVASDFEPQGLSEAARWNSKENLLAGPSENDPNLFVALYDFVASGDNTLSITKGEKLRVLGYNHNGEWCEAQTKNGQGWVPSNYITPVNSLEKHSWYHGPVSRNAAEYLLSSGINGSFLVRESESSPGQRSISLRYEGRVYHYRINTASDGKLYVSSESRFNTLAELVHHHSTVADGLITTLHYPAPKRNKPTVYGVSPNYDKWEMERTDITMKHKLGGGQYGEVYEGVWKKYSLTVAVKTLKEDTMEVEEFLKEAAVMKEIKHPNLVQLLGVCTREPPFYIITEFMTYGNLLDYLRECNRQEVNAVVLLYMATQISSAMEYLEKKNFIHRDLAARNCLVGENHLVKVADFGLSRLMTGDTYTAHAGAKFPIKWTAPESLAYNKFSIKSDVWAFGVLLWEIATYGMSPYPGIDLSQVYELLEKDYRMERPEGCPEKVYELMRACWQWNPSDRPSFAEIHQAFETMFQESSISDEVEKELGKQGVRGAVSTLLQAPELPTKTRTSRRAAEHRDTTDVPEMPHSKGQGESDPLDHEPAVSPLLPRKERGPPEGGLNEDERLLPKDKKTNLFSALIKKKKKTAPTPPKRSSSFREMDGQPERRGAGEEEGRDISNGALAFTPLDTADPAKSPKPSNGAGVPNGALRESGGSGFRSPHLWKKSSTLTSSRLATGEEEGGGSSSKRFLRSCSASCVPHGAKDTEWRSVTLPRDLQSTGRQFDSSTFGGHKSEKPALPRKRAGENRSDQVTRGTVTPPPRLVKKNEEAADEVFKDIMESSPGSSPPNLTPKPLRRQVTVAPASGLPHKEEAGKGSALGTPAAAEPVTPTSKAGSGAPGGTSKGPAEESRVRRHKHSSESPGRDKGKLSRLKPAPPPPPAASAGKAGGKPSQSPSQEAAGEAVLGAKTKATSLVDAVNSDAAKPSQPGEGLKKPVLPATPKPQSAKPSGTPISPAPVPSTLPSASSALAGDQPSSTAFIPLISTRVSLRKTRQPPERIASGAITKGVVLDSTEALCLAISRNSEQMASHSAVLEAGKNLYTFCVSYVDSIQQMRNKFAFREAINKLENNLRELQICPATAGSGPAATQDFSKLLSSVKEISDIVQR
Chain of Ras and Rab interactor 1/Tyrosine-protein kinase ABL1 (Q13671 whole entry): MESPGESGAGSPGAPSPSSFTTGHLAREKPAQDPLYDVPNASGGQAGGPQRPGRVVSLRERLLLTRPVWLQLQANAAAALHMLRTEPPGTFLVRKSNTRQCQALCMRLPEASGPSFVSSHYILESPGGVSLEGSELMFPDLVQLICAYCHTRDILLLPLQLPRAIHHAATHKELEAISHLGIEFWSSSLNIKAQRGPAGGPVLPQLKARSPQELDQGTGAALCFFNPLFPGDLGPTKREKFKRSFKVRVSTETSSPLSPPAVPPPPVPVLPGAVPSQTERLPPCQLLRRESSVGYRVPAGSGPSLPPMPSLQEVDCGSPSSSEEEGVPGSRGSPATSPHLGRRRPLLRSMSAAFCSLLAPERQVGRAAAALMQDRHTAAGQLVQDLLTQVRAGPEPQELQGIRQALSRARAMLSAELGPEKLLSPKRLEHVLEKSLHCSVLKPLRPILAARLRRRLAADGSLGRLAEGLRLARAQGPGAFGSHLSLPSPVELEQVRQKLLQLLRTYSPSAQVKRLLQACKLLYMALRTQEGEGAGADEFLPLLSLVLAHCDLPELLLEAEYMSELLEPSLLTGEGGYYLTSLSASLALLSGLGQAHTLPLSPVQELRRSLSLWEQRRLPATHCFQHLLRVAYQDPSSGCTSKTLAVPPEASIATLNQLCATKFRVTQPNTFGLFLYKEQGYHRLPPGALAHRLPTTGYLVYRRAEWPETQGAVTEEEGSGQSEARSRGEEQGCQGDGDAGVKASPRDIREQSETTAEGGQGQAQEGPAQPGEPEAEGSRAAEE
Chain of Nonstructural protein 1 (Q194T2 whole entry): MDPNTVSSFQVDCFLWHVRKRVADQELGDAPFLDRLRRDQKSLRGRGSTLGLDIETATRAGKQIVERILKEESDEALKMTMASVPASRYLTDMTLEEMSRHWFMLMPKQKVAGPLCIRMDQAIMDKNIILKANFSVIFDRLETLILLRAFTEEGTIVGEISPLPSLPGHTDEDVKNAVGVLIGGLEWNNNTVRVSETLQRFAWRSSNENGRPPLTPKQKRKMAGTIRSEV
Chain of Phospholipase A2 (P04054 whole entry): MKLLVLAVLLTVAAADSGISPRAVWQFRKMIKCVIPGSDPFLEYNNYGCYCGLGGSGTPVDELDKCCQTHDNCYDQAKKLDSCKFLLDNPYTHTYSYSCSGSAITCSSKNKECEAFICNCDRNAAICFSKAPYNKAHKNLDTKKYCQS

Regarding `O=C1CNC(=O)/C1=C/NC12CC3CC(CC(C3)C1)C2`, the IC50 in assay [1] was 19.4 µM (inactive).
As to `CN1CCC(=O)N(CCOc2ccccc2)CC1`, in [2], the AC50 was 77.4 µM (active). The half-maximal inhibitory concentration (IC50) on Nonstructural protein 1 was 18.9 µM (active).
Consider `COc1ccc(CCNC(=O)c2c(C)cc(=O)oc2C)cc1OC`, for which, in assay [3], the AC50 was 57.6 µM (active).
Turning to `CC[C@]12c3[nH]c4ccc(OC)cc4c3CCN1C(=O)C(CC(=O)NCCCN(C)C)C[C@@H]2C(=O)N1CCN(C(=O)c2ccco2)CC1` (stereo partly specified), the IC50 in [1] is 35.3 µM (inactive).
With `Oc1nc(SCc2ccc(Cl)cc2)nc2ccsc12`, the 50% effective concentration (EC50) in [4] is 21.9 µM (active). Moreover, the IC50 on Caspase-3 is 15.2 µM (active); in [5] it was 6.14 µM (active); in assay [6] it was 8.53 µM (active); in assay [7] it was 68.7 µM (active).
Turning to `CC(=O)Nc1ccc(Oc2nc(-c3ccccn3)nc3ccccc23)cc1`, in assay [2], the AC50 is 106 µM (active). In assay [8], the IC50 was 43.5 µM (active).
Turning to `Cc1ccc(-n2cc3ccc([N+](=O)[O-])cc3n2)cc1`, the half-maximal effective concentration (EC50) in assay [4] was > 260 µM (inconclusive). In addition, the half-maximal inhibitory concentration (IC50) at Caspase-3 was 34.7 µM (active); in assay [5], 17.2 µM (active); in [6], 12.5 µM (active); in [7], 59.9 µM (active).
Turning to `CNC[C@@H]1Oc2cc(C#CC3CCCC3)ccc2S(=O)(=O)N([C@@H](C)CO)C[C@@H]1C`, in [3], the half-maximal activity concentration (AC50) was 4.31 µM (active).
In the case of `O=C(Nc1ccn(CCCN2CCN(Cc3ccc(F)cc3)CC2)c(=O)n1)OCc1ccccc1`, the IC50 in [1] was 20 µM (inactive).
Regarding `CC(C)(C)C(=O)Nc1ccccc1C(=O)NCCCn1ccnc1`, the concentration at half-maximal activity (AC50) in [2] is 131 µM (active).
Turning to `Oc1ccc(Cl)cc1N=Nc1ccccc1`, the IC50 on Caspase-3 is 23.6 µM (active); in assay [5], 35.4 µM (active); in [6] it was 7.8 µM (active); in assay [7], > 100 µM (inactive).
For `COc1ccc(Br)cc1CNC(=O)C1CCN(S(=O)(=O)N2CCC(C)CC2)CC1`, the values for the IC50 at Cysteine protease ATG4B and on Phospholipase A2 were 9.71 µM (active) and 6.6 µM (active), respectively.

Broadly, the IC50 is the concentration at which inhibition is half-maximal. For orientation: AC50 means the concentration at which the activity in the assay is half-maximal. One may read the EC50 as the midpoint of the concentration-response curve.
